Experimental findings from patent US8785457B2 (Cellzome Limited, priority 2009, dated 2014) are described below.

The subject of test [1] is Akt serine-473 phosphorylation. In words: In vitro Phospho-Akt cellular assay (pAkt S473) in HEK293T/17 cells. Format: cell-based. The note with it: Homo sapiens, 2 hours. The method, boiled down:
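HEK293T/17 cells were seeded at 40,000 (pS6RP) or 80,000 (pAkt) cells/well in DMEM with 2% FCS. They were exposed to 8 compound concentrations (0.1% DMSO) for 2 h at 37 °C and then lysed. Phosphoprotein was quantified by MesoScale electrochemiluminescence sandwich immunoassay, and the sigmoidal variable-slope dose-response was fitted.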

Test [2] has as its target T1, PI3K delta (PI3 Kd) (Homo sapiens, UniProt O00329).
T1 construct: endogenous in cells; host or cells: Jurkat, clone E6-1 (ATCC TIB-152) cell lysate
As to the kind of experiment: kinobeads assay, PI3K delta. Format: binding. The note with it: kinobeads assay, Table 6; read-out: Inhibition values (IC50) PI3Kd. The method in brief: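 IC50 values came from dose-response curves after test compound (1:3 series) competed with an immobilized phenylmorpholin-chromen affinity matrix for kinases in Jurkat lysate at 5 mg/mL protein. Eluted captured DNA-PK and PI3Kδ were measured by specific-antibody dot blot and infrared imaging. Buffer was Tris pH 7.4, NP40, MgCl2, NaCl, vanadate, DTT, NaF.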

T1 sequence (O00329 whole entry): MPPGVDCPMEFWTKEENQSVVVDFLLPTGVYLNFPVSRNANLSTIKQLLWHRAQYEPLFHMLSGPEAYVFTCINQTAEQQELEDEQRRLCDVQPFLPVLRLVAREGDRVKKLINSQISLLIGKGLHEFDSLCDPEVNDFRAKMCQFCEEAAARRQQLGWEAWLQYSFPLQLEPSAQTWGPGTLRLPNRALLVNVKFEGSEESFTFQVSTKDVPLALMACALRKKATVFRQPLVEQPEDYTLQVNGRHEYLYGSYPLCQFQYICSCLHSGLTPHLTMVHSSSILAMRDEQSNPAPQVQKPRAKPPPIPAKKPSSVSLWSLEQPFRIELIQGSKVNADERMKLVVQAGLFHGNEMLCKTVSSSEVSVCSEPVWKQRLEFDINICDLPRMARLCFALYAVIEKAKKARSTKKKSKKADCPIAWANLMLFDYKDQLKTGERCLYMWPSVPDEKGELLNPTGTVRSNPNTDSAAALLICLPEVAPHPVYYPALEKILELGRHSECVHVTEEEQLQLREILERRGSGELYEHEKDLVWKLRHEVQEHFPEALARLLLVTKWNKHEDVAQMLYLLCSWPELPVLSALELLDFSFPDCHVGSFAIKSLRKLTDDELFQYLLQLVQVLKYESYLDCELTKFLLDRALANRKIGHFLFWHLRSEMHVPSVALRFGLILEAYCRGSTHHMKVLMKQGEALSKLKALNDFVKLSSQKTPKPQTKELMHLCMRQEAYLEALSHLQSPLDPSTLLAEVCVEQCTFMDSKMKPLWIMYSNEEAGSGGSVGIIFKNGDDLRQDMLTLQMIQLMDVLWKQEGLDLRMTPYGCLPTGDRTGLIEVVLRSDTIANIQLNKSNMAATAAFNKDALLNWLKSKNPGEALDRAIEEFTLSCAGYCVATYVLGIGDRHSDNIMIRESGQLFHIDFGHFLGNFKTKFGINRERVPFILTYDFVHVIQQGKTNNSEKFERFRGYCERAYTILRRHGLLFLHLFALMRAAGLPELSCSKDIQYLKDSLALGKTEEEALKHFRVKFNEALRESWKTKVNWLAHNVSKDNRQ
T1 sequence (P27986 whole entry partner): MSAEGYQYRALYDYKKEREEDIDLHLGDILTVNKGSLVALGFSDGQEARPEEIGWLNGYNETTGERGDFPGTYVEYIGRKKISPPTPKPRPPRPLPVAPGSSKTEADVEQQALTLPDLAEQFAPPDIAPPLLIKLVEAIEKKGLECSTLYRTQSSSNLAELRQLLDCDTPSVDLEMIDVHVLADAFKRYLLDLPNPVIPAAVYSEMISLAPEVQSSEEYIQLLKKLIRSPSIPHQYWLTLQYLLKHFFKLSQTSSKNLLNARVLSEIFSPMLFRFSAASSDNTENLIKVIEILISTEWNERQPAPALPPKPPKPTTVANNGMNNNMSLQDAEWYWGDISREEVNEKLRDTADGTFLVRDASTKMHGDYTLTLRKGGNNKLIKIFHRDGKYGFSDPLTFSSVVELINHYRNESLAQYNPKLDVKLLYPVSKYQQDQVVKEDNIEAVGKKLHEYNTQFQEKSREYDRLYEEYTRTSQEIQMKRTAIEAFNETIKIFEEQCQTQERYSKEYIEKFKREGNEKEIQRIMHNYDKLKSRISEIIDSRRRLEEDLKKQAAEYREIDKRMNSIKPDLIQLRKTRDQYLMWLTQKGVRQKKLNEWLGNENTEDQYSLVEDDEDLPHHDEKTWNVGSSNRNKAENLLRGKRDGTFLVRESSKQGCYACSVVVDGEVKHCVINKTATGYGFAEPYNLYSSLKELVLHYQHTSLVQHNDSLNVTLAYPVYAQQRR

Consider `CCNC(=O)N1CCc2c(nc(-c3ccc(NC(=O)NC4CC4)cc3)nc2N2CCOC[C@@H]2C)C1` [Example 88, (S)-2-(4-(3-cyclopropylureido)phenyl)-N-ethyl-4-(3-methylmorpholino)-5,6-dihydropyrido[3,4-d]pyrimidine-7(8H)-carboxamide], for which the IC50 in test [1] was 57 nM; in test [2] it was greater than 10000 nM.
On to `CCNC(=O)Nc1ccc(-c2nc3c(c(N4CCOC[C@@H]4C)n2)CN(C(=O)OC)C3)cc1` [Example 89, (S)-methyl 2-(4-(3-ethylureido)phenyl)-4-(3-methylmorpholino)-5H-pyrrolo[3,4-d]pyrimidine-6(7H)-carboxylate], for which the IC50 in test [1] was 42 nM; in test [2], greater than 10000 nM.
`CCNC(=O)Nc1ccc(-c2nc3c(c(N4CCOC[C@@H]4C)n2)CN(C(=O)OCC)C3)cc1` [Example 90, (S)-ethyl 2-(4-(3-ethylureido)phenyl)-4-(3-methylmorpholino)-5H-pyrrolo[3,4-d]pyrimidine-6(7H)-carboxylate]: the IC50 in test [1] is 37 nM; in test [2], greater than 10000 nM.
In the same order, the values of `CCNC(=O)Nc1ccc(-c2nc3c(c(N4CCOC[C@@H]4C)n2)CCN(C(=O)Cc2cccnc2)C3)cc1` [Example 91, (S)-1-ethyl-3-(4-(4-(3-methylmorpholino)-7-(2-(pyridin-3-yl)acetyl)-5,6,7,8-tetrahydropyrido[3,4-d]pyrimidin-2-yl)phenyl)urea] are 87 nM and greater than 10000 nM.
Take `CCNC(=O)Nc1ccc(-c2nc3c(c(N4CCOC[C@@H]4C)n2)CN(C(=O)OCC)C3)cc1F` [Example 103, (S)-ethyl-2-(4-(3-ethylureido)-3-fluorophenyl)-4-(3-methylmorpholino)-5H-pyrrolo[3,4-d]pyrimidine-6(7H)-carboxylate]: the values for the IC50 in test [1] and in test [2] were 88 nM and greater than 10000 nM, respectively.
Take `CCNC(=O)Nc1ccc(-c2nc3c(c(N4CCOC[C@@H]4C)n2)CCN(C)C3)c(F)c1` [Example 110, (S)-1-ethyl-3-(3-fluoro-4-(7-methyl-4-(3-methylmorpholino)-5,6,7,8-tetrahydropyrido[3,4-d]pyrimidin-2-yl)phenyl)urea]: the figures for the IC50 in test [1] and in test [2] were 118 nM and greater than 10000 nM, respectively.
With `CCNC(=O)Nc1ccc(-c2nc3c(c(N4CCOC[C@@H]4C)n2)CN(C(=O)OCC)C3)c(F)c1` [Example 113, (S)-ethyl-2-(4-(3-ethylureido)-2-fluorophenyl)-4-(3-methylmorpholino)-5H-pyrrolo[3,4-d]pyrimidine-6(7H)-carboxylate], the figures for the IC50 in test [1] and in test [2] were 53 nM and greater than 10000 nM, respectively.
In the same order, the values of `CCOC(=O)N1Cc2nc(-c3ccc(NC(=O)NC4CC4)cc3F)nc(N3CCOC[C@@H]3C)c2C1` [Example 131, (S)-ethyl 2-(4-(3-cyclopropylureido)-2-fluorophenyl)-4-(3-methylmorpholino)-5H-pyrrolo[3,4-d]pyrimidine-6(7H)-carboxylate] are 49 nM and greater than 10000 nM.
